Experimental data from patent US7365053B2, “Selective N-acylation of A82846 glygopeptides analogs” (priority 2000, dated 2008).
In brackets after ≈: the same amount, converted by molar mass.

Key:
[1] = tested on: vancomycin-resistant enterococci; assay: In vitro activity against enterococci, broth microdilution; format: cell-based, Enterococcus faecium and Enterococcus faecalis; conditions: representative vancomycin-resistant enterococci (E. faecium and E. faecalis); BHI medium
Procedure: (§1) The compounds of the present invention have in vitro activity against Gram-positive pathogenic bacteria. The antibacterial activity of the present compounds is illustrated in Tables III and IV. The minimal inhibitory concentrations (MICs) were determined using a standard broth micro-dilution assay. Table IV presents a comparison of the activity of illustrative compounds against representative vancomycin-resistant and vancomycin-sensitive enterococci (Enterococcus faecium and Enterococcus faecalis), mean geometric MIC (mcg/mL), as determined by the standard broth microdilution assay.
(§2) Assays for antimicrobial activity were performed using microbroth susceptibility testing methods as described by the NCCLS (National Committee for Clinical Laboratories Standards. 1990. Approved standard M7-A2. Methods for dilution antimicrobial susceptibility testing for bacteria that grow aerobically, 2 ed., Villanova Pa.). Brain-heart infusion medium (BHI) was used for testing of enterococci, and NCCLS recommendations for medium were followed for other bacteria.

[2] = tested on: vancomycin-sensitive enterococci; assay: as above; format: cell-based, Enterococcus faecium and Enterococcus faecalis; conditions: representative vancomycin-sensitive enterococci (E. faecium and E. faecalis); BHI medium
Procedure: as §1, §2

[3] = tested on: Streptococcus pyogenes C203; assay: Broth micro-dilution MIC; format: cell-based
Procedure: as §1, §2

[4] = tested on: Enterococcus gallinarum 245; assay: Broth micro-dilution MIC; format: cell-based; conditions: BHI medium
Procedure: as §1, §2

[5] = tested on: Staphylococcus aureus X778; assay: Broth micro-dilution MIC; format: cell-based
Procedure: as §1, §2

[6] = tested on: Staphylococcus aureus S13E; assay: Broth micro-dilution MIC; format: cell-based
Procedure: as §1, §2

[7] = tested on: Staphylococcus haemolyticus 415; assay: Broth micro-dilution MIC; format: cell-based
Procedure: as §1, §2

[8] = tested on: Staphylococcus aureus 491; assay: Broth micro-dilution MIC; format: cell-based
Procedure: as §1, §2

[9] = tested on: Staphylococcus aureus 446; assay: Broth micro-dilution MIC; format: cell-based
Procedure: as §1, §2

[10] = tested on: Staphylococcus aureus SA1199A; assay: Broth micro-dilution MIC; format: cell-based
Procedure: as §1, §2

[11] = tested on: Haemophilus influenzae RD; assay: Broth micro-dilution MIC; format: cell-based
Procedure: as §1, §2

[12] = tested on: Streptococcus pneumoniae P1; assay: Broth micro-dilution MIC; format: cell-based
Procedure: as §1, §2

[13] = tested on: Staphylococcus aureus 447; assay: Broth micro-dilution MIC; format: cell-based
Procedure: as §1, §2

[14] = tested on: Staphylococcus aureus SA1199B; assay: Broth micro-dilution MIC; format: cell-based
Procedure: as §1, §2

[15] = tested on: Staphylococcus epidermidis 270; assay: Broth micro-dilution MIC; format: cell-based
Procedure: as §1, §2

Enterococcus faecium 180 = assay: Broth micro-dilution MIC; format: cell-based; conditions: BHI medium
Procedure: as §1, §2

[16] = tested on: Enterococcus faecalis 2041; assay: Broth micro-dilution MIC; format: cell-based; conditions: BHI medium
Procedure: as §1, §2

[17] = tested on: Staphylococcus aureus X400; assay: Broth micro-dilution MIC; format: cell-based
Procedure: as §1, §2

[18] = tested on: Staphylococcus aureus SA1199; assay: Broth micro-dilution MIC; format: cell-based
Procedure: as §1, §2

[19] = tested on: Staphylococcus aureus 489; assay: Broth micro-dilution MIC; format: cell-based
Procedure: as §1, §2

Escherichia coli EC14 = assay: Broth micro-dilution MIC; format: cell-based
Procedure: as §1, §2

[20] = tested on: Enterococcus faecium 180-1; assay: Broth micro-dilution MIC; format: cell-based; conditions: BHI medium
Procedure: as §1, §2

[21] = tested on: Staphylococcus haemolyticus 105; assay: Broth micro-dilution MIC; format: cell-based
Procedure: as §1, §2

[22] = tested on: Enterococcus faecalis 276; assay: Broth micro-dilution MIC; format: cell-based; conditions: BHI medium
Procedure: as §1, §2

SMILES	Mean geometric MIC, Vancomycin Resistant Strains [1]	Mean geometric MIC, Vancomycin Sensitive Strains [2]	MIC [3]	MIC [4]	MIC [5]	MIC [6]	MIC [7]	MIC [8]	MIC [9]	MIC [10]	MIC [12]	MIC [13]	MIC [14]	MIC [15]	MIC (Enterococcus faecium 180)	MIC [16]	MIC [17]	MIC [18]	MIC [19]	MIC (Escherichia coli EC14)	other results
CNC(CC(C)C)C(=O)NC1C(=O)NC(CC(N)=O)C(=O)NC2C(=O)NC3C(=O)NC(C(=O)NC(C(=O)O)c4cc(O)cc(O)c4-c4cc3ccc4O)C(OC3CC(C)(N)C(O)C(C)O3)c3ccc(c(Cl)c3)Oc3cc2cc(c3OC2OC(CO)C(O)C(O)C2OC2CC(C)(NC(=O)c3ccc(-c4ccccc4)cc3)C(O)C(C)O2)Oc2ccc(cc2Cl)C1O (centres unmarked) [Example 1]	11.3 µg/mL	0.38 µg/mL	≦.06 μg/ml	8 µg/mL (≈ 4.51 µM)	1 µg/mL (≈ 0.564 µM)	2 µg/mL (≈ 1.13 µM)	8 µg/mL (≈ 4.51 µM)	0.25 µg/mL (≈ 0.141 µM)	2 µg/mL (≈ 1.13 µM)	0.125 µg/mL (≈ 0.0705 µM)	≦.06 μg/ml	16 µg/mL (≈ 9.03 µM)	2 µg/mL (≈ 1.13 µM)	16 µg/mL (≈ 9.03 µM)	0.25 µg/mL (≈ 0.141 µM)	0.125 µg/mL (≈ 0.0705 µM)	1 µg/mL (≈ 0.564 µM)	2 µg/mL (≈ 1.13 µM)	0.5 µg/mL (≈ 0.282 µM)	>64 µg/mL	MIC [11]: >64 µg/mL; MIC [20]: ≦.06 μg/ml; MIC [21]: 1 µg/mL (≈ 0.564 µM); MIC [22]: 0.5 µg/mL (≈ 0.282 µM)
CNC(CC(C)C)C(=O)NC1C(=O)NC(CC(N)=O)C(=O)NC2C(=O)NC3C(=O)NC(C(=O)NC(C(=O)O)c4cc(O)cc(O)c4-c4cc3ccc4O)C(OC3CC(C)(NC(=O)c4ccc(-c5ccccc5)cc4)C(O)C(C)O3)c3ccc(c(Cl)c3)Oc3cc2cc(c3OC2OC(CO)C(O)C(O)C2OC2CC(C)(N)C(O)C(C)O2)Oc2ccc(cc2Cl)C1O (centres unmarked) [Example 2]	>25 µg/mL	0.38 µg/mL	≦.06 μg/ml	>64 µg/mL	2 µg/mL (≈ 1.13 µM)	4 µg/mL (≈ 2.26 µM)	>64 µg/mL	1 µg/mL (≈ 0.564 µM)	8 µg/mL (≈ 4.51 µM)	1 µg/mL (≈ 0.564 µM)	≦.06 μg/ml	32 µg/mL (≈ 18.1 µM)	2 µg/mL (≈ 1.13 µM)	32 µg/mL (≈ 18.1 µM)	32 µg/mL (≈ 18.1 µM)	1 µg/mL (≈ 0.564 µM)	2 µg/mL (≈ 1.13 µM)	4 µg/mL (≈ 2.26 µM)	0.5 µg/mL (≈ 0.282 µM)	>64 µg/mL	MIC [11]: >64 µg/mL; MIC [20]: 1 µg/mL (≈ 0.564 µM); MIC [21]: 2 µg/mL (≈ 1.13 µM); MIC [22]: 1 µg/mL (≈ 0.564 µM)
CC(C)CC(C(=O)NC1C(=O)NC(CC(N)=O)C(=O)NC2C(=O)NC3C(=O)NC(C(=O)NC(C(=O)O)c4cc(O)cc(O)c4-c4cc3ccc4O)C(OC3CC(C)(N)C(O)C(C)O3)c3ccc(c(Cl)c3)Oc3cc2cc(c3OC2OC(CO)C(O)C(O)C2OC2CC(C)(N)C(O)C(C)O2)Oc2ccc(cc2Cl)C1O)N(C)C(=O)c1ccc(-c2ccccc2)cc1 (centres unmarked) [Example 3]	4 µg/mL	0.19 µg/mL	≦.06 μg/ml	2 µg/mL (≈ 1.13 µM)	1 µg/mL (≈ 0.564 µM)	0.25 µg/mL (≈ 0.141 µM)	2 µg/mL (≈ 1.13 µM)	0.5 µg/mL (≈ 0.282 µM)	0.5 µg/mL (≈ 0.282 µM)	1 µg/mL (≈ 0.564 µM)	≦.06 μg/ml	16 µg/mL (≈ 9.03 µM)	2 µg/mL (≈ 1.13 µM)	2 µg/mL (≈ 1.13 µM)	0.25 µg/mL (≈ 0.141 µM)	≦.06 μg/ml	0.5 µg/mL (≈ 0.282 µM)	1 µg/mL (≈ 0.564 µM)	0.5 µg/mL (≈ 0.282 µM)	>64 µg/mL	MIC [11]: >64 µg/mL; MIC [20]: ≦.06 μg/ml; MIC [21]: 4 µg/mL (≈ 2.26 µM); MIC [22]: 0.125 µg/mL (≈ 0.0705 µM)
CCCCCCCC(=O)N(C)C(CC(C)C)C(=O)NC1C(=O)NC(CC(N)=O)C(=O)NC2C(=O)NC3C(=O)NC(C(=O)NC(C(=O)O)c4cc(O)cc(O)c4-c4cc3ccc4O)C(OC3CC(C)(N)C(O)C(C)O3)c3ccc(c(Cl)c3)Oc3cc2cc(c3OC2OC(CO)C(O)C(O)C2OC2CC(C)(N)C(O)C(C)O2)Oc2ccc(cc2Cl)C1O (centres unmarked) [Example 10, 1′-N-octanoyl-A82846B]	90 µg/mL	2.3 µg/mL	≦.06 μg/ml	2 µg/mL (≈ 1.16 µM)	0.5 µg/mL (≈ 0.291 µM)	0.5 µg/mL (≈ 0.291 µM)	16 µg/mL (≈ 9.31 µM)	0.25 µg/mL (≈ 0.145 µM)	1 µg/mL (≈ 0.582 µM)	0.125 µg/mL (≈ 0.0727 µM)	≦.06 μg/ml	1 µg/mL (≈ 0.582 µM)	0.5 µg/mL (≈ 0.291 µM)	0.5 µg/mL (≈ 0.291 µM)	32 µg/mL (≈ 18.6 µM)	0.25 µg/mL (≈ 0.145 µM)	0.5 µg/mL (≈ 0.291 µM)	0.5 µg/mL (≈ 0.291 µM)	0.25 µg/mL (≈ 0.145 µM)	>64 µg/mL	MIC [20]: ≦.06 μg/ml; MIC [21]: 1 µg/mL (≈ 0.582 µM); MIC [22]: 0.25 µg/mL (≈ 0.145 µM)
CNC(CC(C)C)C(=O)NC1C(=O)NC(CC(N)=O)C(=O)NC2C(=O)NC3C(=O)NC(C(=O)NC(C(=O)O)c4cc(O)cc(O)c4-c4cc3ccc4O)C(OC3CC(C)(N)C(O)C(C)O3)c3ccc(c(Cl)c3)Oc3cc2cc(c3OC2OC(CO)C(O)C(O)C2OC2CC(C)(NC(=O)CCCCCCCc3ccccc3)C(O)C(C)O2)Oc2ccc(cc2Cl)C1O (centres unmarked) [Example 11]	9.5 µg/mL	0.093 µg/mL	≦.06 μg/ml	4 µg/mL (≈ 2.23 µM)	0.125 µg/mL (≈ 0.0696 µM)	0.25 µg/mL (≈ 0.139 µM)	4 µg/mL (≈ 2.23 µM)	0.125 µg/mL (≈ 0.0696 µM)	1 µg/mL (≈ 0.557 µM)	≦.06 μg/ml	≦.06 μg/ml	2 µg/mL (≈ 1.11 µM)	0.25 µg/mL (≈ 0.139 µM)	1 µg/mL (≈ 0.557 µM)	0.5 µg/mL (≈ 0.279 µM)	≦.06 μg/ml	0.5 µg/mL (≈ 0.279 µM)	1 µg/mL (≈ 0.557 µM)	0.25 µg/mL (≈ 0.139 µM)	>64 µg/mL	MIC [20]: ≦.06 μg/ml; MIC [21]: ≦.06 μg/ml; MIC [22]: 0.25 µg/mL (≈ 0.139 µM)
CNC(CC(C)C)C(=O)NC1C(=O)NC(CC(N)=O)C(=O)NC2C(=O)NC3C(=O)NC(C(=O)NC(C(=O)O)c4cc(O)cc(O)c4-c4cc3ccc4O)C(OC3CC(C)(NC(=O)CCCCCCCc4ccccc4)C(O)C(C)O3)c3ccc(c(Cl)c3)Oc3cc2cc(c3OC2OC(CO)C(O)C(O)C2OC2CC(C)(N)C(O)C(C)O2)Oc2ccc(cc2Cl)C1O (centres unmarked) [Example 12]	45 µg/mL	0.33 µg/mL	≦.06 μg/ml	8 µg/mL (≈ 4.46 µM)	≦.06 μg/ml	≦.06 μg/ml	8 µg/mL (≈ 4.46 µM)	≦.06 μg/ml	0.125 µg/mL (≈ 0.0696 µM)	≦.06 μg/ml	≦.06 μg/ml	2 µg/mL (≈ 1.11 µM)	0.125 µg/mL (≈ 0.0696 µM)	2 µg/mL (≈ 1.11 µM)	2 µg/mL (≈ 1.11 µM)	≦.06 μg/ml	0.125 µg/mL (≈ 0.0696 µM)	0.25 µg/mL (≈ 0.139 µM)	≦.06 μg/ml	>64 µg/mL	MIC [20]: ≦.06 μg/ml; MIC [21]: ≦.06 μg/ml; MIC [22]: ≦.06 μg/ml
CC(C)CC(C(=O)NC1C(=O)NC(CC(N)=O)C(=O)NC2C(=O)NC3C(=O)NC(C(=O)NC(C(=O)O)c4cc(O)cc(O)c4-c4cc3ccc4O)C(OC3CC(C)(N)C(O)C(C)O3)c3ccc(c(Cl)c3)Oc3cc2cc(c3OC2OC(CO)C(O)C(O)C2OC2CC(C)(N)C(O)C(C)O2)Oc2ccc(cc2Cl)C1O)N(C)C(=O)CCCCCCCc1ccccc1 (centres unmarked) [Example 13]	>51 µg/mL	1.5 µg/mL	≦.06 μg/ml	2 µg/mL (≈ 1.11 µM)	0.25 µg/mL (≈ 0.139 µM)	0.5 µg/mL (≈ 0.279 µM)	8 µg/mL (≈ 4.46 µM)	0.125 µg/mL (≈ 0.0696 µM)	0.5 µg/mL (≈ 0.279 µM)	≦.06 μg/ml	≦.06 μg/ml	0.5 µg/mL (≈ 0.279 µM)	0.25 µg/mL (≈ 0.139 µM)	0.25 µg/mL (≈ 0.139 µM)	8 µg/mL (≈ 4.46 µM)	0.25 µg/mL (≈ 0.139 µM)	0.25 µg/mL (≈ 0.139 µM)	0.5 µg/mL (≈ 0.279 µM)	0.125 µg/mL (≈ 0.0696 µM)	>64 µg/mL	MIC [20]: ≦.06 μg/ml; MIC [21]: ≦.06 μg/ml; MIC [22]: 0.25 µg/mL (≈ 0.139 µM)
